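Growth conditions: 96-well plates. Treatment: test compound, 48 hours, 5 concentrations. Analysis: linear interpolation between bracketing concentrations; unreached endpoints set to highest concentration. GI50 = concentration required for 50% inhibition of growth.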 Active and inactive are the calls of the source. Cut-off read from the data, not from the text of the source: active = GI50 up to about 1.1 µM and inactive = higher.
Key:
Test in all cases: NCI tumour cell line growth inhibition, 48 h
[1] = tested on: SR
[2] = tested on: HCT-15
[3] = tested on: MOLT-4
[4] = tested on: OVCAR-4
[5] = tested on: OVCAR-3
[6] = tested on: SW-620
[7] = tested on: DU-145
[8] = tested on: TK-10
[9] = tested on: NCI-H226
[10] = tested on: UO-31
[11] = tested on: SK-MEL-2
[12] = tested on: SK-MEL-28
[13] = tested on: SN12C
[14] = tested on: BT-549
[15] = tested on: M14
[16] = tested on: SNB-19
[17] = tested on: PC-3
[18] = tested on: RPMI-8226
[19] = tested on: Hs-578T
[20] = tested on: KM12

| SMILES | GI50 [1] | GI50 [2] [µM] | GI50 [3] | GI50 [4] | GI50 [5] | GI50 [6] | GI50 [7] | GI50 [8] | GI50 [9] | GI50 [10] | GI50 [11] | GI50 [12] | GI50 [13] | GI50 [14] | GI50 [15] | GI50 [16] | GI50 [17] | GI50 [18] | GI50 [19] | GI50 [20] |
| --- | --- | --- | --- | --- | --- | --- | --- | --- | --- | --- | --- | --- | --- | --- | --- | --- | --- | --- | --- | --- |
| N#Cc1c(N2CCN(c3ccc([N+](=O)[O-])cc3)CC2)[n+]([O-])c2ccc(Cl)cc2[n+]1[O-] | 0.016 µM (active) | 0.627 | 1.18 µM (inactive) | 1.18 µM (inactive) | 0.745 µM (active) | 0.646 µM (active) | 2.16 µM (inactive) | 2.54 µM (inactive) | 2.29 µM (inactive) | 1.43 µM (inactive) | 2.2 µM (inactive) | 4.52 µM (inactive) | 0.966 µM (active) | 0.264 µM (active) | 1.56 µM (inactive) | 2.81 µM (inactive) | 0.836 µM (active) | 0.705 µM (active) | 2.11 µM (inactive) | 1.7 µM (inactive) |
| C(/Cc1ccc2c(c1)OCO2)=N\N=C1NCCCCN1 | 69.3 µM (inactive) | > 100 | 48.4 µM (inactive) | > 100 µM (inactive) | > 100 µM (inactive) | > 100 µM (inactive) | > 100 µM (inactive) | > 100 µM (inactive) | 49.2 µM (inactive) | 43.9 µM (inactive) | > 100 µM (inactive) | > 100 µM (inactive) | 73.6 µM (inactive) | > 100 µM (inactive) | 16.4 µM (inactive) | > 100 µM (inactive) | 86.1 µM (inactive) | 48.4 µM (inactive) | > 100 µM (inactive) | 88.3 µM (inactive) |
| CC12OOC(c3ccccc31)c1c2ccc2ccccc12 (configuration not stated) | 0.807 µM (active) | 2.17 | 1.6 µM (inactive) | 0.8 µM (active) | 2.26 µM (inactive) | 1.95 µM (inactive) | 18.5 µM (inactive) | 9.68 µM (inactive) | 18.7 µM (inactive) | 9.55 µM (inactive) | 12.1 µM (inactive) | 13.8 µM (inactive) | 15.8 µM (inactive) | 10.4 µM (inactive) | 9.23 µM (inactive) | 16.7 µM (inactive) | 5.66 µM (inactive) | 2.45 µM (inactive) | 18.9 µM (inactive) | 2.62 µM (inactive) |
| CC(O)/C=C/C1OC(=O)CC1Nc1ccc(C=O)cc1 (configuration not stated) | 23.1 µM (inactive) | 60.7 | 10.8 µM (inactive) | > 100 µM (inactive) | 81.3 µM (inactive) | > 100 µM (inactive) | > 100 µM (inactive) | > 100 µM (inactive) | > 100 µM (inactive) | 51.2 µM (inactive) | 23.3 µM (inactive) | > 100 µM (inactive) | > 100 µM (inactive) | > 100 µM (inactive) | 22.3 µM (inactive) | > 100 µM (inactive) | > 100 µM (inactive) | 24.2 µM (inactive) | > 100 µM (inactive) | > 100 µM (inactive) |
| N=c1oc2cc(O)ccc2cc1C(=O)NCc1ccccc1 | 11.9 µM (inactive) | 27.2 | 15.7 µM (inactive) | 31.6 µM (inactive) | 22.6 µM (inactive) | 22.6 µM (inactive) | 16.6 µM (inactive) | 32.1 µM (inactive) | 32.8 µM (inactive) | 25.6 µM (inactive) | 14.4 µM (inactive) | 27.6 µM (inactive) | 19.5 µM (inactive) | 17.3 µM (inactive) | 34.7 µM (inactive) | 23.7 µM (inactive) | 28.4 µM (inactive) | 10.7 µM (inactive) | 15.3 µM (inactive) | 32.3 µM (inactive) |
| Clc1nc(Nc2nc3ccccc3[nH]2)nc(Cl)c1Cc1ccccc1 | > 100 µM (inactive) | 40.2 | > 100 µM (inactive) | 36.1 µM (inactive) |  | > 100 µM (inactive) | > 100 µM (inactive) | > 100 µM (inactive) | > 100 µM (inactive) | > 100 µM (inactive) | > 100 µM (inactive) | > 100 µM (inactive) | 59.4 µM (inactive) | > 100 µM (inactive) | > 100 µM (inactive) | 93.1 µM (inactive) | > 100 µM (inactive) | > 100 µM (inactive) | 32.4 µM (inactive) | 81.7 µM (inactive) |
| CC(=O)Nc1ccc(-c2nc3ccccc3s2)cc1 | 45.6 µM (inactive) | 81.5 | 20.2 µM (inactive) | 29.4 µM (inactive) |  | 53.6 µM (inactive) | 4.9 µM (inactive) | 57.8 µM (inactive) | 44.8 µM (inactive) | 45.5 µM (inactive) | 57.4 µM (inactive) | 71.9 µM (inactive) |  | > 10 µM (inactive) | 63.1 µM (inactive) | 33.4 µM (inactive) | 64.7 µM (inactive) | > 100 µM (inactive) | 40.3 µM (inactive) | 35.3 µM (inactive) |
| Nc1nc(NCC2(CO)CC2)cc(=O)[nH]1 | > 100 µM (inactive) | > 100 | > 100 µM (inactive) | > 100 µM (inactive) | > 100 µM (inactive) | > 100 µM (inactive) | > 100 µM (inactive) |  | > 100 µM (inactive) | > 100 µM (inactive) | > 100 µM (inactive) | > 100 µM (inactive) | > 100 µM (inactive) | > 100 µM (inactive) | > 100 µM (inactive) | > 100 µM (inactive) | > 100 µM (inactive) | > 100 µM (inactive) | > 100 µM (inactive) | > 100 µM (inactive) |
| COc1ccc(C(OC(=O)[C@H](O[Si](C)(C)C(C)(C)C)[C@@H](NC(=O)c2ccccc2)c2ccccc2)c2ccc(OC)cc2)cc1 | 36.6 µM (inactive) | > 100 | 52 µM (inactive) | > 100 µM (inactive) | > 100 µM (inactive) | > 100 µM (inactive) | > 100 µM (inactive) | > 100 µM (inactive) | > 100 µM (inactive) | > 100 µM (inactive) | > 100 µM (inactive) |  | > 100 µM (inactive) | > 100 µM (inactive) |  | > 100 µM (inactive) | > 100 µM (inactive) | < 0.01 µM (active) | > 100 µM (inactive) | > 100 µM (inactive) |
| COc1cccc(C2CC(=O)c3cc(N4CCCC4)ccc3N2)c1 (configuration not stated) | 0.0144 µM (active) | 0.0335 | 0.0338 µM (active) | 23.3 µM (inactive) | 0.0344 µM (active) | 0.0243 µM (active) | 0.0344 µM (active) | 1.21 µM (inactive) | 0.0385 µM (active) | 0.0735 µM (active) | 0.0296 µM (active) |  | 0.0418 µM (active) | 0.0843 µM (active) | 0.0234 µM (active) | 0.0296 µM (active) | 0.022 µM (active) | 0.0492 µM (active) | 0.01 µM (active) | 0.0861 µM (active) |
| Cc1cccc(Nc2nc(NNC(=O)Cc3ccccc3)nc(NNC(=O)c3ccncc3)n2)c1 | > 10 µM (inactive) | > 10 | > 10 µM (inactive) | > 10 µM (inactive) |  | > 10 µM (inactive) | > 10 µM (inactive) | > 10 µM (inactive) | > 10 µM (inactive) | > 10 µM (inactive) |  | > 10 µM (inactive) | > 10 µM (inactive) | > 10 µM (inactive) | > 10 µM (inactive) | > 10 µM (inactive) | > 10 µM (inactive) | > 10 µM (inactive) | > 10 µM (inactive) | > 10 µM (inactive) |
| CC(C)(C)OC(=O)[N+](=N)C(=O)C1CCC(=O)N1C(=O)OCc1ccccc1 (configuration not stated) | > 100 µM (inactive) |  | > 100 µM (inactive) | > 100 µM (inactive) | > 100 µM (inactive) | > 100 µM (inactive) | > 100 µM (inactive) | > 100 µM (inactive) | > 100 µM (inactive) | > 100 µM (inactive) |  | > 100 µM (inactive) | > 100 µM (inactive) | > 100 µM (inactive) | > 100 µM (inactive) | > 100 µM (inactive) | > 100 µM (inactive) | > 100 µM (inactive) | > 100 µM (inactive) | > 100 µM (inactive) |
| C=C1[C@H](OC(=O)C(C)C)[C@@H](OC(C)=O)[C@@H](OC(C)=O)C(C)(C)[C@@H]2O[C@H]2[C@@H](C)C(=O)[C@@]2(OC(C)=O)C[C@@](C)(OC(C)=O)[C@H](OC(C)=O)[C@@H]2[C@H]1OC(C)=O | > 100 µM (inactive) | > 100 | > 100 µM (inactive) | > 100 µM (inactive) | > 100 µM (inactive) | > 100 µM (inactive) | > 100 µM (inactive) | > 100 µM (inactive) | > 100 µM (inactive) | 61.9 µM (inactive) | > 100 µM (inactive) |  | > 100 µM (inactive) | > 100 µM (inactive) | > 100 µM (inactive) | > 100 µM (inactive) | > 100 µM (inactive) | > 100 µM (inactive) | > 100 µM (inactive) | > 100 µM (inactive) |
| COc1cccc(CCCNC(=O)Cc2ccccc2CO)c1 | > 100 µM (inactive) | > 100 | > 100 µM (inactive) | > 100 µM (inactive) | > 100 µM (inactive) | > 100 µM (inactive) | > 100 µM (inactive) | > 100 µM (inactive) | > 100 µM (inactive) | > 100 µM (inactive) | > 100 µM (inactive) | > 100 µM (inactive) | > 100 µM (inactive) | > 100 µM (inactive) | > 100 µM (inactive) | > 100 µM (inactive) | > 100 µM (inactive) |  | > 100 µM (inactive) | > 100 µM (inactive) |

— ChEMBL document CHEMBL1201862, “PubChem BioAssay data set” (2004)
